Assay results as given in patent US20210030908A1 (priority 2013, published 2021).
Read-outs that look alike come from different tables or passages of the source.

Legend:
[1] = system: Bacillus atrophaeus spore strip; assay type: cell-based; conditions: for Sterilization (6-log reduction of Bacillus atrophaeus), Exposure Time 5 Minutes (CT = 250): 3,000 ppmv ClO2 in air, 700 feet/sec, nozzle 2.54 cm from target, CT in ppmv-hrs, per sample replicate
[2] = system: anthrax spores; conditions: gas or vapor phase application, prior art; cited from earlier work
[3] = system: mold spores; conditions: time averaged concentration about 500 to 1500 ppmv over a 12 hour period, prior art; cited from earlier work

SMILES: [O][Cl+][O-] [chlorine dioxide]
- Sterilization (6-log reduction of Bacillus atrophaeus), Exposure Time 5 Minutes (CT = 250) ([1]; Group 1 spore strips, pre-humidified for one hour at about 75 degrees F.): − (“−” indicates at least a 6-log reduction of Bacillus atrophaeus)
- Sterilization (6-log reduction of Bacillus atrophaeus), Exposure Time 5 Minutes (CT = 250) ([1]; Group 2 spore strips, no pre-humidification prior to test): − (“−” indicates at least a 6-log reduction of Bacillus atrophaeus)
- Oxidation of the target ([1]; every test (all exposure times, with and without pre-humidification)): every test resulted in oxidation of the target
- Sterilization outcome ([1]; no pre-humidification, exposure times of 30 seconds, 1 minute, and 2 minutes, at CT's of 25, 50, and 100): some sterilization
- Sterilization outcome ([1]; no pre-humidification, exposure times of at least 5 minutes at a CT of 250): successful sterilization of all targets
- Applications resulting in successful sterilization ([1]; pre-humidified application zones, 30 seconds at a CT of 25): 75%
- Sterilization outcome ([1]; pre-humidified application zones, exposure times greater than or equal to 1 minute, CT greater than or equal to 50): successful sterilization of the targets for all applications
- CT found effective for sterilizing anthrax spores [2]: 9000 ppmv-hrs
- CT found effective for killing mold spores and eliminating allergenic effects [3]: 6000-18000 ppmv-hrs
